# Measurements published in ChEMBL document CHEMBL6153110, “Peptide Double-Stapling and Arginine N-Glycosylation Triggered the Development of Therapeutic Antimicrobial Peptides Capable of Killing Drug-Resistant Bacteria in Mice” (J Med Chem, 2025).
# Calls of active or inactive are those of the source. The calls are words filed in the database; no cut-off is given here. Positions of bridges follow the written chain, without caps; N, C: chain ends. Non-standard residues stand in square brackets, D forms with d. Residues, ends and D or L forms follow the SMILES beside them. Arg(Nω-βLac) = N=C(NCCC[C@H](N)C(=O)O)N[C@@H]1O[C@H](CO)[C@@H](O[C@@H]2O[C@H](CO)[C@H](O)[C@H](O)[C@H]2O)[C@H](O)[C@H]1O; S5 = C=CCCC[C@](C)(N)C(=O)O
# Legend:
# Staphylococcus aureus [1] = test: Antimicrobial activity against methicillin-resistant Staphylococcus aureus ATCC 43300 assessed as growth inhibition measured after 8 hrs incubation by standard broth dilution assay; format: functional
# Streptococcus pneumoniae = test: Antimicrobial activity against Streptococcus pneumoniae ATCC 49619 assessed as growth inhibition measured after 8 hrs incubation by standard broth dilution assay; format: functional
# [2] = Hemolytic activity in BALB/c mouse red blood cells assessed as hemolysis incubated for 1 hrs; format: toxicity, cell-based, Erythrocyte; settings: read-out: HD50
# Cell membrane [3] = test: Binding affinity to methicillin-resistant Staphylococcus aureus ATCC 43300 cell membrane treated with FITC labelled peptides at MIC measured after 1.5 hr by CLSM imaging analysis; format: subcellular
# Cell membrane [4] = test: Induction of cell membrane damage in Klebsiella pneumoniae ATCC 13883 assessed as increase in green fluorescence at MIC measured after 1 hr incubation by SYTO9 confocal microscopy; format: subcellular
# Staphylococcus aureus [5] = test: Antibiofilm activity in methicillin-resistant Staphylococcus aureus ATCC 43300 assessed as prevention of biofilm formation at 0.5 to 4 times of MIC measured after 24 hrs by crystal violet staining based assay; format: functional, organism-based
# [6] = Toxicity in mouse assessed as inflammatory infiltration at 40 mg/kg, sc by H and E staining based assay; format: organism-based; settings: in vivo
# Staphylococcus aureus [7] = test: In vivo antibacterial activity against methicillin-resistant Staphylococcus aureus ATCC 43300 infected locally in full thickness skin wound mouse model assessed as clean and less exudate at 1 mg/kg treated with absorbable gelatin sponge measured on early healing stage; format: functional, organism-based; settings: route id
# Staphylococcus aureus [8] = test: In vivo antibacterial activity against methicillin-resistant Staphylococcus aureus ATCC 43300 infected locally in full thickness skin wound mouse model assessed as reduced skin damage by promoting wound healing at 4 mg/kg treated with absorbable gelatin sponge measured on early healing stage; format: functional, organism-based; settings: route id
# Staphylococcus aureus [9] = test: In vivo antibacterial activity against methicillin-resistant Staphylococcus aureus ATCC 43300 infected locally in full thickness skin wound mouse model assessed as decrease in edema and ulcerative tissue in wound at 4 mg/kg treated with absorbable gelatin sponge measured after 7 days; format: functional, organism-based; settings: time 7.0 day
# Klebsiella pneumoniae [10] = test: In vivo antibacterial activity against Klebsiella pneumoniae ATCC 13883 induced bacterial pneumonia mouse model assessed as reduction in bacterial load in lungs at 1 mg/kg, injected into trachea after 24 hrs of infection measured after 3 to 7 days; format: functional, organism-based
# Klebsiella pneumoniae [11] = test: In vivo antibacterial activity against Klebsiella pneumoniae ATCC 13883 induced bacterial pneumonia mouse model assessed as increase in survival of mouse at 4 mg/kg, injected into trachea after 24 hrs of infection measured after 3 to 7 days; format: functional, organism-based
# Klebsiella pneumoniae [12] = test: In vivo antibacterial activity against Klebsiella pneumoniae ATCC 13883 induced bacterial pneumonia mouse model assessed as reduction in bacterial infection induced inflammatory response in lungs by measuring large number of alveoli at 4 mg/kg, injected into trachea after 24 hrs of infection measured after 3 to 7 days by H and E staining based assay; format: functional, organism-based
# Klebsiella pneumoniae [13] = test: In vivo antibacterial activity against Klebsiella pneumoniae ATCC 13883 induced bacterial pneumonia mouse model assessed as reduction in bacterial infection induced IL-6 level in lung tissue at 4 mg/kg, injected into trachea after 24 hrs of infection measured after 3 to 7 days; format: functional, organism-based
# Klebsiella pneumoniae [14] = test: In vivo antibacterial activity against Klebsiella pneumoniae ATCC 13883 induced bacterial pneumonia mouse model assessed as reduction in bacterial infection induced IL-6 mRNA expression in lung tissue at 4 mg/kg, injected into trachea after 24 hrs of infection measured after 3 to 7 days; format: functional, organism-based
smiles,measurement,setting,value
"CC(=O)N[C@@H](CCCCN)C(=O)N[C@@H](CCCCN)C(=O)N[C@@H](CCCNC(=N)N)C(=O)N[C@H](C(=O)N[C@@H](CCCCN)C(=O)N[C@@H](CCCCN)C(=O)N[C@@H](CCCNC(=N)N)C(=O)N[C@@]1(C)CCC/C=C\CCC[C@@](C)(C(=O)N[C@@H](CCCCN)C(=O)N[C@@]2(C)CCC/C=C\CCC[C@@](C)(C(=O)N[C@@H](CC(C)C)C(=O)N[C@@H](CCCCN)C(=O)N[C@@H](CCCCN)C(=O)N3CCC[C@H]3C(=O)N[C@H](C(=O)N[C@@H](CCCNC(=N)N[C@@H]3O[C@H](CO)[C@@H](O[C@@H]4O[C@H](CO)[C@H](O)[C@H](O)[C@H]4O)[C@H](O)[C@H]3O)C(N)=O)C(C)C)NC(=O)[C@H](CCCNC(=N)N)NC(=O)[C@H](Cc3c[nH]c4ccccc34)NC(=O)[C@H](Cc3ccc(O)cc3)NC2=O)NC(=O)[C@H](CC(C)C)NC(=O)[C@H](CCCCN)NC(=O)[C@H](Cc2ccccc2)NC1=O)C(C)C (Ac-KKRVKKR[S5]FKL[S5]K[S5]YWR[S5]LKKPV[Arg(Nω-βLac)]-NH2; staple (Z) 8-12, 14-18)",MIC,Staphylococcus aureus [1],1.1 µg/mL
same,MIC,Streptococcus pneumoniae,1.1 µg/mL
same,HC50 at 1 h,[2],87.6 µg/mL
same,Activity,Cell membrane [3],Active; Compound Exhibited Brighter Red
same,Activity,Cell membrane [4],Active
same,Activity,Staphylococcus aureus [5],Dose-dependent-effect
same,Activity,[6],Toxic
same,Activity,Staphylococcus aureus [7],Active; Model Group Showed Yellowish Compared With The Wounds Treated With Compound
same,Activity,Staphylococcus aureus [8],Active
same,Activity,Staphylococcus aureus [9],Active
same,Activity,Klebsiella pneumoniae [10],Active; Compound Showed Superior Therapeutic Effect Than Slp-0
same,Activity,Klebsiella pneumoniae [11],Active
same,Activity,Klebsiella pneumoniae [12],Active
same,Activity,Klebsiella pneumoniae [13],Active
same,Activity,Klebsiella pneumoniae [14],Active
